Test results taken from US20180118721A1, “PYRIMIDINE DERIVATIVES” (Merck Patent GmbH, priority 2015, published 2018).

Key:
[1] = target: T1, purified human recombinant MTH1 (human MTH1, residues 42-197) (Homo sapiens, UniProt P36639); experiment: MTH1 enzymatic assay (luminescence-based, PPiLight); assay type: biochemical; details: Table 2
T1 construct: human MTH1, residues 42-197, Uniprot-ID: P36639, expressed in E. coli; made in house; host or cells: E. coli

[2] = Microsomal stability (intrinsic clearance), human; assay type: in vitro ADME; details: human liver microsomes, 0.5 mg/ml protein, Clint
Description: A microsomal stability assay is used to measure in vitro clearance (Clint). The assay involves measuring the rate of disappearance of a compound due to its intrinsic attitude to be metabolized (“intrinsic” meaning that the disappearance is not affected by other properties like permeability, binding etc. that play a role when quantifying in vivo clearance). The microsomal stability (intrinsic clearance, Clint) and thus metabolic stability is generally given as μl/min/mg protein. It can be visualized as the volume of solution that 1 mg of microsomes is able to clear of the compound in one minute.
A Tecan Genesis workstation (RSP 150/8) was used for to perform the microsomal incubations. Analysis was carried out using a Waters ACQUITY UPLC system coupled to an ABSciex API3000 mass spectrometer. Data analysis was performed using Assay Explorer (Symyx).
Column: Acquity UPLC BEH C18, 2.1×50 mm, 1.7 μm (Waters) Mobile phases: A=0.1% formic acid in water; B=acetonitrile
Flow rate: 0.750 mL/min; Detection: ESI, MRM; Injection: 10 μL; Column temperature: 50° C.
• Potassium phosphate buffer: 0.05 M potassium phosphate buffer pH 7.4 containing 1 mM MgCl2 • NADPH (nicotinamide adenine dinucleotide phosphate): 22.5 mg NADPH-Na4 in 1.8 ml potassium phosphate buffer • Acetonitrile: 50 Vol % acetonitrile (1 volume acetonitrile, 1 volume water) • DMSO: 20 Vol % DMSO in water • Stock solution of 20 mg/ml human or mouse liver microsomes (protein)/ml in phosphate buffer • Stock solution of 10 mM compound in 100% DMSO
Dilution of test compounds was done in 2 steps starting from a 10 mM stock solution of the respective compound in 100% DMSO. First 4 μl stock solution was added to 196 μl of 20 Vol % DMSO. In a second step, 10 μl of the first dilution were added to 1590 μl potassium phosphate buffer to achieve a final concentration of 1.25 μM in the final compound dilution. Thus, the amount of organic solvent in the assay was kept to a minimum (<1%).
The human or mouse liver microsome (protein) solution to be used in the assay was prepared by mixing 750 μl stock solution (20 mg/ml) and 2250 μl potassium phosphate buffer to a final concentration of 5 mg/ml.
Incubation was carried out on a 96 deep well incubation plate. 160 μl per well of the final compound dilution were transferred onto the incubation plate. Four samples of each compound dilution were assayed. 20 μl/well liver microsome solution was added to each well and the samples were then preincubated for 5 min at 37° C. and 800 rpm agitation. Two reference compounds (verapamil and dextromethorphan) were used in parallel in every experiment and for each species (human or mouse microsomes) to ensure system performance and for comparison.
On a separate stop plate, 160 μl acetonitrile were added per well.
After preincubation, i.e. at time t1=0 minutes, 18 μl samples of incubated compound solution and were transferred and added per well (containing acetonitrile) on the stop plate to prevent a reaction (0 minutes control samples, 4 samples per compound). Equally, 18 μl samples of incubated reference compound solution were transferred and added per well (containing acetonitrile) on the stop plate at time t1=0 minutes and again after 30 minutes (t4), solubility and chemical stability of the compound were checked. […]

With CNc1cc(-c2cccc(Cl)c2Cl)nc(N)n1 [TH-287, reference compound] the IC50 [1] was < 1 nM and the Microsomal stability human [2] was 32 μl/min/mg prot.
